Measurements as given in patent US20120196899A1, “METHODS AND PRODUCTS FOR TREATING INFLAMMATION” (Rock Creek Pharmaceuticals, Inc., priority 2010, published 2012).
Values joined by “and” are separate entries in the source; they are usually repeats but may differ in a detail not shown here. Identical values can stand only once. Like-named read-outs stand apart in the source and are kept apart here.

Assay: Plasma pharmacokinetics after oral multi-dose anatabine polacrilex
Type: in vivo, Sprague-Dawley rats
Conditions: for Anatabine Concentration in rat plasma: dose 2 mg/kg; for Avg. Conc. of anatabine in plasma: dose group 2, female; for concentration at 30 min / concentration at 60 min / concentration at 235 min / concentration at 270 min / concentration at 300 min / concentration at 475 min / concentration at 540 min / concentration at 600 min / concentration at 720 min / Tmax / half-life: Sprague-Dawley, rat, plasma; for concentration at 30 min / concentration at 60 min / concentration at 235 min / concentration at 270 min / concentration at 300 min / concentration at 475 min / concentration at 540 min / concentration at 600 min / concentration at 720 min: oral; for Tmax / half-life: po; for half-life: mean
Experimental: This study consisted of two groups of 8 animals each, 4 males and 4 females.
Two formulations were prepared; one for each of the two treatment groups. The test compound was formulated for each treatment group just prior to the first dose administration and constantly stirred until dosing was completed (Table 37). Four aliquots of each dose level formulation were collected and stored at −80° C.
The animals were weighed prior to dosing and received three doses p.o. of test compound at a volume of 5 mL/kg. Blood was collected via the venus plexus (retro-orbital) into tubes containing (K2) EDTA. No more than 0.5 mL was collected per time point.
Plasma was separated as per package instructions for MICROTAINER® brand collection tubes (3 minutes, 2000×g). Plasma was decanted into microfuge tubes and stored at −80° C. Remaining test compound was placed at −80° C.
Sample preparation. Plasma samples were treated with three volumes of methanol containing internal standard at 1 μM (R,S)-Antabine-2,4,5,6-d4), incubated 10 min at 4° C., and centrifuged. The amount of the test agent in the supernatant was determined by LC/MS/MS.
Analysis. Samples were analyzed by LC/MS/MS using an Agilent 6410 mass spectrometer coupled with an Agilent 1200 high pressure liquid chromatography (HPLC) and a CTC PAL chilled autosampler, all controlled by MassHunter software (Agilent). After separation on a Hydrophilic interaction liquid chromatography (HILIC) HPLC column (Sepax) using an acetonitrile-ammonium acetate/acetic acid gradient system, peaks were analyzed by mass spectrometry (MS) using ESI ionization in multiple reaction monitoring (MRM) mode. MassHunter software was used to calculate the concentration of the test compounds in samples from the peak area using the appropriate calibration curves.
Calibration samples. Calibration curves were determined in rat plasma. Calibration samples were prepared by diluting a 50× stock solution of the test compound in PBS with blank matrix to the appropriate concentration and these samples were prepared as described above in the sample preparation.
Data Analysis. Descriptive statistics were calculated for all pharmacokinetic parameters. Elimination half-lives (t1/2) were calculated by linear regression of logarithmically transformed plasma concentration data for each period between doses and following the final dose.
Total areas under the plasma concentration curves (AUC) and under the first moment curves (AUMC) were calculated using linear trapezoidal summation across all concentration time points as well as for intervals between each dose administration and following the final dose. […] Mean absorption times (MAT) were calculated according to the following relation: […]
where MRT represents the mean residence time. This was calculated from the mean residence times.
The statistical comparison of parameters between male and female animals was made using a two-tailed, unpaired, t-test with a 95 percent confidence interval. Repeated-measures analysis of variance (ANOVA) was used for multiple comparisons of Cp, max involving successive determinations on the same group of animals.

[1] = females, 6.0 mg/kg BW group, anatabine polacrilex p.o.

C1=CCC(c2cccnc2)NC1 (racemic) [Anatabine, 1,2,3,6-tetrahydro-[2,3′]bipyridinyl]
Anatabine Concentration in rat plasma (female, 270 min, individual animals 4A-4D): 324 ng/mL and 350 ng/mL
Anatabine Concentration in rat plasma (female, 300 min, individual animals 4A-4D): 216 ng/mL and 97 ng/mL and 191 ng/mL and 414 ng/mL
Anatabine Concentration in rat plasma (female, 475 min, individual animals 4A-4D): 219 ng/mL and 178 ng/mL and 179 ng/mL
Anatabine Concentration in rat plasma (female, 540 min, individual animals 4A-4D): 231 ng/mL and 314 ng/mL and 369 ng/mL and 474 ng/mL
Anatabine Concentration in rat plasma (female, 600 min, individual animals 4A-4D): 197 ng/mL and 207 ng/mL and 480 ng/mL and 288 ng/mL
Anatabine Concentration in rat plasma (female, 720 min, individual animals 4A-4D): 165 ng/mL and 217 ng/mL
Anatabine Concentration in rat plasma (male, 235 min, individual animals 3A-3D): 46 ng/mL and 63 ng/mL and 105 ng/mL
Anatabine Concentration in rat plasma (male, 270 min, individual animals 3A-3D): 364 ng/mL and 309 ng/mL
Anatabine Concentration in rat plasma (male, 300 min, individual animals 3A-3D): 232 ng/mL and 202 ng/mL
Anatabine Concentration in rat plasma (male, 475 min, individual animals 3A-3D): 97 ng/mL
Anatabine Concentration in rat plasma (male, 540 min, individual animals 3A-3D): 290 ng/mL and 173 ng/mL
Anatabine Concentration in rat plasma (male, 600 min, individual animals 3A-3D): 173 ng/mL and 130 ng/mL and 150 ng/mL
Anatabine Concentration in rat plasma (male, 720 min, individual animals 3A-3D): 401 ng/mL and 137 ng/mL and 71 ng/mL
Avg. Conc. of anatabine in plasma (30 min): 160 ng/mL
Avg. Conc. of anatabine in plasma (60 min): 129 ng/mL
Avg. Conc. of anatabine in plasma (235 min): 44 ng/mL
Avg. Conc. of anatabine in plasma (270 min): 316 ng/mL
Avg. Conc. of anatabine in plasma (300 min): 234 ng/mL
Avg. Conc. of anatabine in plasma (540 min): 386 ng/mL
Avg. Conc. of anatabine in plasma (600 min): 325 ng/mL
Avg. Conc. of anatabine in plasma (720 min): 208 ng/mL
concentration at 30 min (female, 0.2 mg/kg BW, Avg. Conc. of anatabine in plasma, dose group 0.2, female, 30 min): 37 ng/mL
concentration at 60 min (female, 0.2 mg/kg BW, Avg. Conc. of anatabine in plasma, dose group 0.2, female, 60 min): 35 ng/mL
concentration at 235 min (female, 0.2 mg/kg BW, Avg. Conc. of anatabine in plasma, dose group 0.2, female, 235 min): 12 ng/mL
concentration at 270 min (female, 0.2 mg/kg BW, Avg. Conc. of anatabine in plasma, dose group 0.2, female, 270 min): 26 ng/mL
concentration at 300 min (female, 0.2 mg/kg BW, Avg. Conc. of anatabine in plasma, dose group 0.2, female, 300 min): 34 ng/mL
concentration at 475 min (female, 0.2 mg/kg BW, Avg. Conc. of anatabine in plasma, dose group 0.2, female, 475 min): 8 ng/mL
concentration at 540 min (female, 0.2 mg/kg BW, Avg. Conc. of anatabine in plasma, dose group 0.2, female, 540 min): 34 ng/mL
concentration at 600 min (female, 0.2 mg/kg BW, Avg. Conc. of anatabine in plasma, dose group 0.2, female, 600 min): 28 ng/mL
concentration at 720 min (female, 0.2 mg/kg BW, Avg. Conc. of anatabine in plasma, dose group 0.2, female, 720 min): 12 ng/mL
concentration at 30 min (female, 0.2 mg/kg, Anatabine Concentration in rat plasma, 30 min, individual animals 2A-2D): 34 ng/mL
concentration at 60 min (female, 0.2 mg/kg, Anatabine Concentration in rat plasma, 60 min, individual animals 2A-2D): 29 ng/mL
concentration at 475 min (female, 0.2 mg/kg, Anatabine Concentration in rat plasma, 475 min, individual animals 2A-2D): 7 ng/mL
concentration at 540 min (female, 0.2 mg/kg, Anatabine Concentration in rat plasma, 540 min, individual animals 2A-2D): 24 ng/mL
concentration at 270 min (female, 2 mg/kg, Anatabine Concentration in rat plasma, 270 min, individual animals 4A-4D): 237 ng/mL
concentration at 475 min (female, 2 mg/kg, Anatabine Concentration in rat plasma, 475 min, individual animals 4A-4D): 144 ng/mL
concentration at 720 min (female, 2 mg/kg, Anatabine Concentration in rat plasma, 720 min, individual animals 4A-4D): 186 ng/mL
Tmax (female, 0.6 mg/kg, female rats, after dose 1, mean, read-out: Tmax(1)): 0.63 h
Tmax (female, 0.6 mg/kg, female rats, after dose 2, mean, read-out: Tmax(2)): 0.88 h
Tmax (female, 0.6 mg/kg, female rats, after dose 3, mean, read-out: Tmax(3)): 1.25 h
half-life (female, 0.6 mg/kg, female rats, after first dose, read-out: t1/2,0→4 (converted)): 2.06 h
half-life (female, 0.6 mg/kg, female rats, read-out: t1/2, terminal (converted)): 1.8 h
Tmax (female, 6 mg/kg, female rats, after dose 1, mean, read-out: Tmax(1)): 0.5 h
Tmax (female, 6 mg/kg, female rats, after dose 2, mean, read-out: Tmax(2)): 0.63 h
Tmax (female, 6 mg/kg, female rats, after dose 3, mean, read-out: Tmax(3)): 1.25 h
half-life (female, 6 mg/kg, female rats, after first dose, read-out: t1/2,0→4 (converted)): 1.82 h
half-life (female, 6 mg/kg, female rats, read-out: t1/2, terminal (converted)): 3.99 h
half-life (female, both treatment groups combined, female rats, read-out: t1/2,0→4 (converted)): 1.94 h
Cp, max, initial value (increase from) [1]: 259.8 ± 35.4 ng/mL
Cp, max, later value (increase to) [1]: 374.8 ± 122.9 ng/mL
Cp, min, first minimum [1]: 51.5 ± 26.0 ng/mL
Cp, min(2), second minimum (females, 6.0 mg/kg BW group, anatabine polacrilex p.o., 6 mg/kg): 180 ± 31 ng/mL and 180.0 ± 30.7 ng/mL
concentration at 300 min (male, 0.2 mg/kg BW, Avg. Conc. of anatabine in plasma, dose group 0.2, male, 300 min): 26 ng/mL
concentration at 475 min (male, 0.2 mg/kg BW, Avg. Conc. of anatabine in plasma, dose group 0.2, male, 475 min): 18 ng/mL
concentration at 540 min (male, 0.2 mg/kg BW, Avg. Conc. of anatabine in plasma, dose group 0.2, male, 540 min): 38 ng/mL
concentration at 600 min (male, 0.2 mg/kg BW, Avg. Conc. of anatabine in plasma, dose group 0.2, male, 600 min): 29 ng/mL
concentration at 720 min (male, 0.2 mg/kg BW, Avg. Conc. of anatabine in plasma, dose group 0.2, male, 720 min): 12 ng/mL
concentration at 30 min (male, 0.2 mg/kg, Anatabine Concentration in rat plasma, 30 min, individual animals 1A-1D): 29 ng/mL
concentration at 60 min (male, 0.2 mg/kg, Anatabine Concentration in rat plasma, 60 min, individual animals 1A-1D): 32 ng/mL
concentration at 235 min (male, 0.2 mg/kg, Anatabine Concentration in rat plasma, 235 min, individual animals 1A-1D): 11 ng/mL
concentration at 270 min (male, 0.2 mg/kg, Anatabine Concentration in rat plasma, 270 min, individual animals 1A-1D): 35 ng/mL
concentration at 300 min (male, 0.2 mg/kg, Anatabine Concentration in rat plasma, 300 min, individual animals 1A-1D): 22 ng/mL
concentration at 30 min (male, 0.2 mg/kg, Avg. Conc. of anatabine in plasma, dose group 0.2, male, 30 min): 33 ng/mL
concentration at 60 min (male, 0.2 mg/kg, Avg. Conc. of anatabine in plasma, dose group 0.2, male, 60 min): 30 ng/mL
concentration at 235 min (male, 0.2 mg/kg, Avg. Conc. of anatabine in plasma, dose group 0.2, male, 235 min): 11 ng/mL
concentration at 270 min (male, 0.2 mg/kg, Avg. Conc. of anatabine in plasma, dose group 0.2, male, 270 min): 26 ng/mL
concentration at 30 min (male, 2 mg/kg BW, Avg. Conc. of anatabine in plasma, dose group 2, male, 30 min): 243 ng/mL
concentration at 235 min (male, 2 mg/kg BW, Avg. Conc. of anatabine in plasma, dose group 2, male, 235 min): 72 ng/mL
concentration at 270 min (male, 2 mg/kg BW, Avg. Conc. of anatabine in plasma, dose group 2, male, 270 min): 303 ng/mL
concentration at 300 min (male, 2 mg/kg BW, Avg. Conc. of anatabine in plasma, dose group 2, male, 300 min): 183 ng/mL
concentration at 475 min (male, 2 mg/kg BW, Avg. Conc. of anatabine in plasma, dose group 2, male, 475 min): 97 ng/mL
concentration at 540 min (male, 2 mg/kg BW, Avg. Conc. of anatabine in plasma, dose group 2, male, 540 min): 226 ng/mL
concentration at 600 min (male, 2 mg/kg BW, Avg. Conc. of anatabine in plasma, dose group 2, male, 600 min): 151 ng/mL
concentration at 720 min (male, 2 mg/kg BW, Avg. Conc. of anatabine in plasma, dose group 2, male, 720 min): 203 ng/mL
concentration at 475 min (male, 2 mg/kg, Anatabine Concentration in rat plasma, 475 min, individual animals 3A-3D): 79 ng/mL
concentration at 540 min (male, 2 mg/kg, Anatabine Concentration in rat plasma, 540 min, individual animals 3A-3D): 214 ng/mL
Tmax (male, 0.6 mg/kg, male rats, after dose 1, mean, read-out: Tmax(1)): 0.75 h
Tmax (male, 0.6 mg/kg, male rats, after dose 2, mean, read-out: Tmax(2)): 0.63 h
Tmax (male, 0.6 mg/kg, male rats, after dose 3, mean, read-out: Tmax(3)): 1 h
half-life (male, 0.6 mg/kg, male rats, after first dose, read-out: t1/2,0→4 (converted)): 2.05 h
half-life (male, 0.6 mg/kg, male rats, read-out: t1/2, terminal (converted)): 1.78 h
Tmax (male, 6 mg/kg, male rats, after dose 1, mean, read-out: Tmax(1)): 0.63 h
Tmax (male, 6 mg/kg, male rats, after dose 2, mean, read-out: Tmax(2)): 0.63 h
Tmax (male, 6 mg/kg, male rats, after dose 3, mean, read-out: Tmax(3)): 2 h
half-life (male, 6 mg/kg, male rats, after first dose, read-out: t1/2,0→4 (converted)): 1.76 h
half-life (male, 6 mg/kg, male rats, read-out: t1/2, terminal (converted)): 5.07 h
half-life (male, both treatment groups combined, male rats, read-out: t1/2,0→4 (converted)): 1.92 h
